# Assay results taken from patent US20050064521A1, “In vitro assay for evaluation of angiogenic effects” (TUNGHAI UNIVERSITY, priority 2003, published 2005).
# Experiments:
# endothelial cells [1] = experiment: Collapse of the three-dimensional collagen fiber gel, trypan blue absorbance measurement; assay type: cell-based, Sprague-Dawley (SD) rats
# Protocol: (§1) Three-dimensional collagen fiber gel: The dry collagen fiber was extract from tails of Sprague-Dawley (SD) rats. The fiber was dissolved in 1 N acetic acid solution in the concentration of 1 g fiber/100 mL acetic acid. The dissolving was performed at 4° C. for 48 hours and followed by dialysis three times with 0.25 N acetic acid solution for 24 hours.
# Endothelial cells: SD rats weighting 100 to 200 g were anaesthetized with 0.1 mL/100 g body weight of barbiturate (Nembutal™, Abbott® Laboratories, USA) intraperitoneally. The thoracic aortas were cut and the connective tissues were removed. The vessels were further split into vessel rings thickening about 2 mm, and then cultured the rings in fresh Dulbecco's modified Eagle medium (DMEM) with 10% fetal bovine serum. The culture was maintained at 37° C. with 5% CO2 with changing the medium every two days. After cultured for 5 to 6 days, the cells were harvested. The endothelial cells suitable for the method according to the invention were the second to tenth passage cells. […]
# After culturing for 48 hours, the medium was removed and 0.075% trypan blue was added for staining the gels for 30 minutes. The upper solution was then removed and the absorbance of the solution was determined with a spectroscope. […]
# It was evidenced that the degree of collapse of the three-dimensional collagen fiber gel is decreased with the addition of EGCg. That results support that the effect of a compound on angiogenesis can be determined by comparing the degrees of collapse of the collagen fiber gels of the models. For instance, the compound is determined to have a stimulatory effect on angiogenesis in case the collapse of the collagen fiber gel of the model added with the compound is increased in comparison with that added without the compound; in contrast, the compound is determined to have an inhibitory effect on angiogenesis in case the collapse of the collagen fiber gel of the model added with the compound is decreased in comparison with that added without the compound.
# endothelial cells [2] = experiment: Tube formation of endothelial cells in three-dimensional collagen fiber gel model, inverted microscopy; assay type: cell-based, Sprague-Dawley (SD) rats; settings: cultured for 48 hours
# Protocol: as §1
# Endothelial cells: SD rats weighting 100 to 200 g were anaesthetized with 0.1 mL/100 g body weight of barbiturate (Nembutal™, Abbott® Laboratories, USA) intraperitoneally. The thoracic aortas were cut and the connective tissues were removed. The vessels were further split into vessel rings thickening about 2 mm, and then cultured the rings in fresh Dulbecco's modified Eagle medium (DMEM) with 10% fetal bovine serum. The culture was maintained at 37° C. with 5% CO2 with changing the medium every two days. After cultured for 5 to 6 days, the cells were harvested. The endothelial cells suitable for the method according to the invention were the second to tenth passage cells.
# Model: The endothelial cells (3×10^6) were mixed in the three-dimensional collagen fiber gel and cultured in DMEM containing 5% fetal bovine serum and 10 ng/mL VEGF and 3.08 ng/mL TPA at 37° C. After culturing the endothelial cells for 0, 6, 12, 24, 48, and 72 hours, the morphologies of the cell and gel were both observed with an inverted microscope. […]
compound,measurement,setting,value
"O=C(O[C@@H]1Cc2c(O)cc(O)cc2O[C@@H]1c1cc(O)c(O)c(O)c1)c1cc(O)c(O)c(O)c1 [EGCg, epigallocatechin gallate]",inhibitory effect on angiogenesis (absorbance measurement),endothelial cells [1]; 25 μM EGCg,a little inhibitory effect on angiogenesis
same,collapse of the gel (absorbance measurement),endothelial cells [1]; 50 μM EGCg,nearly totally inhibited
same,collapse of the gel (absorbance measurement),endothelial cells [1]; 100 μM EGCg,nearly no collapse was observed
same,tubes and cell count versus control without EGCg,endothelial cells [2]; 25 μM EGCg,less tubes and lower cell count
same,tubes,endothelial cells [2]; 100 μM EGCg,almost no tubes
